# How the values were obtained:
# Assay type in all cases: cell-based, rat
# Lig-2 cells = test: Colony formation efficiency, Lig-2
# Lig-13 cells [1] = test: Daughter pair analysis (DPA), Lig-13; details: independent of Xs concentration
# Description: (§1) Into 10-cm diameter culture dishes, an estimated 1750 cells were plated in DMEM-10% dFBS, supplemented at the Xs concentration used for derivation, and cultured for 16 hours. Medium was then replaced with either Xs-free medium or medium containing 100 μM Xs, and cells were cultured for an additional 48 h (GT=60 h). Bromo-5-deoxyuridine (BrdU) was then added to the cultures to a concentration of 5 μM for 5 hours. Detection of incorporated BrdU was performed using primary antibody Bu1-75 (Harlan), and a biotinylated secondary antibody (Vector Laboratories) with avidin-fluorescein visualization. Nuclei were detected by staining with 0.5 μg/ml DAPI (Molecular Probes). Images were captured using a Nikon TE300 microscope, Orca camera, and Openlab software (Improvision). The assay is called a “daughter pair analysis” (DPA). To perform the DPA, cells were plated in Xs-containing medium at microcolony density. After allowing 4 to 5 hours for cell adherence, parallel cultures were replaced with fresh medium that was either Xs-supplemented or Xs-free. After allowing time for cell divisions to produce “daughter pairs”, the cells were cultured for 4 hours with the thymidine analogue bromodeoxyuridine (BrdU). Cells were then fixed and evaluated for BrdU incorporation by in situ immunofluorescence.
# Lig-6 cells = test: Colony formation efficiency, Lig-6
# Lig-13 cells [2] = test: Differentiation marker expression, Xs-free vs Xs-supplemented, Lig-13; design: key: −: no expression detected; +/−: weak expression; +: expression detected; !: increased expression in Xs-free conditions; *: no increased expression in Xs-free conditions
# Description: To prepare cell lysates, cells were cultured until 95% confluent. After washing once with ice cold PBS, the cells were solubilized on ice in ice-cold lysis buffer (RIPA buffer; Hinds et al., 1987). The cell lysates were clarified by centrifugation at 13,000 rpm (Eppendorf™ microfuge) for 30 minutes at 4°0 C. and stored at −70°0 C. until further analysis. Soluble protein in lysates was quantified using the Bio-Rad DC™ assay. Twenty micrograms of cell lysates or 25 μl of culture medium samples were separated by SDS-PAGE (8-12% polyacrylamide) and analyzed for specific proteins by the following immunoblot procedure. Electrophoresed proteins were transferred to Hybond ECL membranes in Tris-Glycine-Methanol buffer (25 mM Tris-HCl, pH 7.5, 190 mM glycine, 20% methanol) for 1 hour at 100 volts at room temperature. Membranes were then stained with Ponceau S (0.5%) to verify uniform protein transfer and then blocked with Tris-buffered saline, 5% non-fat dried milk, 0.1% Tween-20 at room temperature for 1 hour. Following three 10-minute washes at room temperature in Tris-buffered saline, 0.1% Tween-20, the membranes were incubated with the specific primary antibodies diluted appropriately in Tris-buffered saline, 1% milk, 0.1% Tween-20 for 12-15 hours at 4° C. For albumin detection, membranes were incubated with an anti-albumin-HRP antibody (EY Laboratories) for 1 hour at room temperature. After removal of the unbound antibodies with three 10-minute washes in Tris-buffered saline-0.1% Tween-20, the membranes (except for albumin detection) were incubated with the anti-goat-HRP (1:2000) or anti-mouse HRP (1:5000) for 1 hour at room temperature. After three 10-minute washes with Tris-buffered saline-0.1% Tween-20, specifically bound HRP-conjugated antibodies were detected using the Amersham Enhanced Chemiluminescence Plus™ system. To re-probe a membrane with a different antibody, it was first incubated for 2.5 h in 0.1M glycine (pH 2.5) at room temperature. Immunohistochemical staining was performed with HRP-conjugated secondary antibodies as recommended by the supplier of primary detection antibodies. [table]
# Lig-1 cells [3] = test: Differentiation marker expression, Xs-free conditions, Lig-1; design: key: −: no expression detected; +/−: weak expression; +: expression detected; !: increased expression in Xs-free conditions; *: no increased expression in Xs-free conditions; details: in situ immunofluorescence, confluent growth arrest in 1% serum 1-2 weeks
# Lig-8 cells [4] = test: Differentiation marker expression, Xs-free vs Xs-supplemented, Lig-8; design: key: −: no expression detected; +/−: weak expression; +: expression detected; !: increased expression in Xs-free conditions; *: no increased expression in Xs-free conditions
# Lig-9 cells [5] = test: Fc(t) assay for asymmetric cell kinetics, Lig-9
# Description: To initiate the assay, 100 cells were plated in 75-cm^2 flasks. After a 16-hour growth period, pairs of new daughter cells were identified under the microscope, and their positions marked for serial examination. Thereafter, the marked microcolonies were examined at roughly ⅓ GT intervals for at least 2 generations. At each examination, the fraction of cells that divided during the previous interval was calculated as described (Sherley et al., 1995a). The estimated cell GT of examined lines was determined simultaneously as described (Sherley et al., 1995ab).
# A previously described serial colony formation analyses (the “Fc[t] assay”; Sherley et al., 1995a) was used to quantify the degree of asymmetric cell kinetics by Xs-derived cell lines. The Fc(t) assay quantifies the accumulation rate of cells in micro-colonies examined by serial phase microscopy at intervals of less than one GT from the 2-cell stage (Sherley et al., 1995a). Fc(t) is calculated by summing the fractions of dividing cells determined in each interval and dividing by the total number of GTs examined. When cells divide with symmetric kinetics, the value of Fc(t) approaches 1.0, regardless of the length of the examination period. For asymmetric kinetics, in which one non-dividing daughter is produced at each cell division, Fc(t) is a declining flnction that approaches […] with increasing exam time. […]
# Lig-4 cells = test: Colony formation efficiency, Lig-4
# Lig-3 cells [6] = test: Differentiation marker expression, Xs-free conditions, Lig-3; design: key: −: no expression detected; +/−: weak expression; +: expression detected; !: increased expression in Xs-free conditions; *: no increased expression in Xs-free conditions; details: in situ immunofluorescence, confluent growth arrest in 1% serum 1-2 weeks
# Lig-13 cells [7] = test: Colony formation efficiency, Lig-13
# Lig-8 cells [8] = test: Colony formation efficiency, Lig-8
# Xs-derived cell lines = test: Colony formation efficiency, Xs-derived lines as a group; details: n=8
# From the text: (§2) There was a marked difference in the cell kinetics properties of early passage conventional lines (Lig-1 to -3 in Table 1) and Xs-derived lines (Lig-4 to -15 in Table 1). […] The estimated mean increase in colony formation efficiency for Xs-derived cell lines in Xs-supplemented medium was 11-fold (n=8), ranging from a 10% increase to a 40-fold increase (Lig-13 in Table 1; p<0.0001). The growth of conventional cell lines was unaffected by Xs even when the Xs concentration was doubled (data not shown). [table]
# Lig-9 cells [9] = test: Colony formation efficiency, Lig-9
# Lig-1 cells [10] = test: Colony formation efficiency, Lig-1
# Lig-3 cells [11] = test: Colony formation efficiency, Lig-3
# Lig-8 cells [12] = test: Daughter pair analysis (DPA), Lig-8; details: Xs added, 16% in the absence of Xs, n=58 pairs
# Description: as §1
# Lig-14 cells = test: Colony formation efficiency, Lig-14
# Lig-15 cells = test: Colony formation efficiency, Lig-15
# conventional cell lines = test: Growth of conventional cell lines with Xs; details: even when the Xs concentration was doubled (data not shown)
# From the text: as §2, with “shown).” for “shown). [table]”
# Lig-7 cells = test: Colony formation efficiency, Lig-7
# [13] = 50 μM xanthosine, 200 cells per well, 14 days
# [14] = colony formation efficiency, 50 μM xanthosine vs Xs-free
# [15] = in situ immunofluorescence, confluent growth arrest in 1% serum 1-2 weeks
compound,measurement,setting,value
"O=c1[nH]c(=O)c2ncn([C@@H]3O[C@H](CO)[C@@H](O)[C@H]3O)c2[nH]1 [Xs, Xanthosine]",Colony formation efficiency Xs+ (Mean % ± SD; n = 6),Lig-2 cells; [13],29 ± 3.7%
same,Xs+/Xs− Ratio,Lig-2 cells; [14],1.0
same,fraction of symmetric BrdU(+) daughter pairs,Lig-13 cells [1],76%
same,Colony formation efficiency Xs+ (Mean % ± SD; n = 6),"Lig-6 cells; Lig-6 (derived in 400 μM Xs), 50 μM xanthosine, 200 cells per well, 14 days",5.3 ± 1.8%
same,Xs+/Xs− Ratio,"Lig-6 cells; Lig-6, colony formation efficiency, 50 μM xanthosine vs Xs-free",1.4
same,"Albumin (ALB) expression, change in Xs-free conditions",Lig-13 cells [2]; immunoblot,+*
same,"Cytokeratin 7 (CK7) expression, change in Xs-free conditions",Lig-13 cells [2]; immunoblot,+!
same,"α1-Antitrypsin (AAT) expression, change in Xs-free conditions",Lig-13 cells [2]; immunoblot,+/−*
same,"α-Fetoprotein (AFP) expression, change in Xs-free conditions",Lig-13 cells [2]; immunoblot,+*
same,"H.4 expression, change in Xs-free conditions",Lig-13 cells [2]; [15],+/−*
same,"H.4 expression, change in Xs-free conditions",Lig-1 cells [3],+*
same,"Albumin (ALB) expression, change in Xs-free conditions",Lig-8 cells [4]; immunoblot,+!
same,"Cytokeratin 7 (CK7) expression, change in Xs-free conditions",Lig-8 cells [4]; immunoblot,+*
same,"α1-Antitrypsin (AAT) expression, change in Xs-free conditions",Lig-8 cells [4]; immunoblot,+!
same,"α-Fetoprotein (AFP) expression, change in Xs-free conditions",Lig-8 cells [4]; immunoblot,+!
same,"H.4 expression, change in Xs-free conditions",Lig-8 cells [4]; [15],+!
same,effect of Xs on terminal division fraction,Lig-9 cells [5]; 100 μM Xs,did not significantly affect
same,Terminal Division Fraction,"Lig-9 cells [5]; Xs+, 2-cell microcolonies with no division in 5 days, Xs− 0.58",0.47
same,Colony formation efficiency Xs+ (Mean % ± SD; n = 6),"Lig-4 cells; Lig-4 (derived in 400 μM Xs), 50 μM xanthosine, 200 cells per well, 14 days",8.0 ± 1.1%
same,Xs+/Xs− Ratio,"Lig-4 cells; Lig-4, colony formation efficiency, 50 μM xanthosine vs Xs-free",1.5
same,"H.4 expression, change in Xs-free conditions",Lig-3 cells [6],+/−*
same,Colony formation efficiency Xs+ (Mean % ± SD; n = 6),"Lig-13 cells [7]; Lig-13 (derived in 200 μM Xs), 50 μM xanthosine, 200 cells per well, 14 days",12 ± 2.7%
same,Xs+/Xs− Ratio,"Lig-13 cells [7]; Lig-13, colony formation efficiency, 50 μM xanthosine vs Xs-free",40
same,increase in colony formation efficiency in Xs-supplemented medium,"Lig-13 cells [7]; Lig-13, p<0.0001",40 fold
same,Colony formation efficiency Xs+ (Mean % ± SD; n = 6),"Lig-8 cells [8]; Lig-8 (derived in 400 μM Xs), 50 μM xanthosine, 200 cells per well, 14 days",22 ± 3.6%
same,Xs+/Xs− Ratio,"Lig-8 cells [8]; Lig-8, colony formation efficiency, 50 μM xanthosine vs Xs-free",17
same,estimated mean increase in colony formation efficiency in Xs-supplemented medium,Xs-derived cell lines,11 fold
same,Colony formation efficiency Xs+ (Mean % ± SD; n = 6),"Lig-9 cells [9]; Lig-9 (derived in 400 μM Xs), 50 μM xanthosine, 200 cells per well, 14 days",11 ± 2.6%
same,Xs+/Xs− Ratio,"Lig-9 cells [9]; Lig-9, colony formation efficiency, 50 μM xanthosine vs Xs-free",1.1
same,Colony formation efficiency Xs+ (Mean % ± SD; n = 6),Lig-1 cells [10]; [13],9.8 ± 2.2%
same,Xs+/Xs− Ratio,Lig-1 cells [10]; [14],0.9
same,Colony formation efficiency Xs+ (Mean % ± SD; n = 6),Lig-3 cells [11]; [13],18 ± 3.7%
same,Xs+/Xs− Ratio,Lig-3 cells [11]; [14],1.0
same,fraction of double-BrdU(+) daughter pairs,Lig-8 cells [12],76%
same,Colony formation efficiency Xs+ (Mean % ± SD; n = 6),"Lig-14 cells; Lig-14 (derived in 200 μM Xs), 50 μM xanthosine, 200 cells per well, 14 days",0.4 ± 0.67%
same,Xs+/Xs− Ratio,"Lig-14 cells; Lig-14, colony formation efficiency, 50 μM xanthosine vs Xs-free",1.3
same,Colony formation efficiency Xs+ (Mean % ± SD; n = 6),"Lig-15 cells; Lig-15 (derived in 200 μM Xs), 50 μM xanthosine, 200 cells per well, 14 days",10 ± 1.6%
same,Xs+/Xs− Ratio,"Lig-15 cells; Lig-15, colony formation efficiency, 50 μM xanthosine vs Xs-free",5.3
same,growth of conventional cell lines with Xs,conventional cell lines,unaffected
same,Colony formation efficiency Xs+ (Mean % ± SD; n = 6),"Lig-7 cells; Lig-7 (derived in 400 μM Xs), 50 μM xanthosine, 200 cells per well, 14 days",6.7 ± 2.2%
same,Xs+/Xs− Ratio,"Lig-7 cells; Lig-7, colony formation efficiency, 50 μM xanthosine vs Xs-free",≧22

# From US7645610B2, “Hepatocyte precursor cell lines” (Massachusetts Institute of Technology, priority 2002, dated 2010)
